Experimental data: patent US6461997B1, “Triazole sulfones having herbicidal activity” (Monsanto Technology LLC, priority 1999, dated 2002)

The molecules below were run on PANDI (fall panicum) (assay: Pre-emergence herbicidal activity, warm season). Details: GR80 = lowest tested rate (300, 100, 30, 10 g/ha) with 80% or greater inhibition; approx. 14 days after treating; 30/21° C.
Assay type: in vivo, Panicum dichotomiflorum
Procedure, shortened: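 Seeds sown in sterilised fertilised topsoil received surface-applied compound in 50:50 acetone/water, typically at 300, 100, 30 and 10 g/ha, then greenhouse-grown at 30/21° C (warm-season species) or 18/13° C (cool-season species). Percent inhibition versus untreated plants was scored at about 14 days, giving GR80; an asterisk marks activity short of 80% at the top rate.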

Question: With `CCN(CC)C(=O)n1cnc(S(=O)(=O)C(F)(F)C(F)(F)SC)n1` [Example 14] as the molecule, how does the “Pre-emergence activity (GR80) PANDI” value read?
Answer: 100 g/ha

What follows are molecules tested on BROTE (downy brome) (assay: Post-emergence herbicidal activity, cool season). Details: abraded plants sprayed at 300, 100, 30 and 10 g/ha; about 14 days after treatment.
Assay type: in vivo, Bromus tectorum
Procedure, shortened: (§1)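 GR80 values derive from percent growth inhibition scored approximately 14 days post-spray against abraded, unsprayed controls under an 18/13 °C regime. Foliar application to sandblast-abraded plants used rates of 300, 100, 30 and 10 g/ha in 50:50 acetone/water at 3,100 l/ha.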

Question: With `CCSC(F)(F)S(=O)(=O)c1ncn(C(=O)N(CC)CC)n1` [Example 8, 1-(N,N-diethylcarbamoyl)-3-[difluoro(ethylthio)methylsulfonyl]-1,2,4-triazole] as the molecule, how does the “Post-emergence activity GR80, BROTE” value read?
Answer: [empty]

Question: With `CCN(CC)C(=O)n1cnc(S(=O)(=O)C(F)(F)C(F)(F)SC)n1` [Example 14] as the molecule, how does the “Post-emergence activity GR80, BROTE” value read?
Answer: [empty]

What follows are molecules tested on BROTE (downy brome) (assay: Pre-plant incorporated (PPI) herbicidal activity, cool season). Details: Bromus tectorum; weed, PPI application, 30 g/ha; read-out: Percent inhibition BROTE.
Assay type: in vivo, Bromus tectorum
Protocol: (§2) In another set of tests, the pre-plant incorporated (PPI) activity of compounds of this invention was evaluated on the same species as for the pre-emergence tests described above. In the PPI tests the following procedure, designed to simulate PPI application, was used.
(§3) A pre-prepared topsoil mixture (described above) was placed in a pot and compacted to a depth of 1.0 to 1.25 cm from the top of the pot. Seeds of each of several monocotyledonous and dicotyledonous annual plant species were placed on top of the soil. A sufficient quantity of soil to cover the seeds and level fill the pot was weighed into an open container. A known amount of the test compound was dissolved or suspended in an organic solvent and applied by spraying to this cover soil. The cover soil was thoroughly mixed to distribute the test compound throughout the cover soil, and was then applied as a cover layer over the seeds. Untreated soil was used as a cover layer for control pots. After treatment the plants were placed in a greenhouse where they received 0.64 cm of overhead irrigation. All subsequent watering consisted of a light overhead mist and/or subirrigation as needed for germination and growth. Tables 9 and 10 below relate to warm season plant species which were placed after pre-emergence treatment in a greenhouse with a 30/21° C. day/night temperature regime. Tables 11 and 12 below relates to cool season plant species placed after pre-emergence treatment in a greenhouse or growth chamber with an 18/13° C. day/night temperature regime. Only the compounds of Examples 1, 6, 8, 11, 13 and 15-20 were included in PPI tests.
(§4) Approximately 14 days after planting and treating, the plants were observed and herbicidal efficacy recorded as percent inhibition by comparison with untreated plants.

Question: For `CCSC(F)(F)S(=O)(=O)c1ncn(C(=O)N(CC)CC)n1` [Example 8, 1-(N,N-diethylcarbamoyl)-3-[difluoro(ethylthio)methylsulfonyl]-1,2,4-triazole], which inhibition at 30 g/ha is on record?
Answer: 0%

Same assay, conditions: Bromus tectorum; weed, PPI application, 100 g/ha; read-out: Percent inhibition BROTE

Question: `CCSC(F)(F)S(=O)(=O)c1ncn(C(=O)N(CC)CC)n1` [Example 8, 1-(N,N-diethylcarbamoyl)-3-[difluoro(ethylthio)methylsulfonyl]-1,2,4-triazole] was tested. Which inhibition at 100 g/ha did it give?
Answer: 0%

Same assay, conditions: Bromus tectorum; weed, PPI application, 300 g/ha; read-out: Percent inhibition BROTE

Question: For `CCSC(F)(F)S(=O)(=O)c1ncn(C(=O)N(CC)CC)n1` [Example 8, 1-(N,N-diethylcarbamoyl)-3-[difluoro(ethylthio)methylsulfonyl]-1,2,4-triazole], which inhibition at 300 g/ha is on record?
Answer: 65%

Same assay, conditions: Bromus tectorum; weed, PPI application, 900 g/ha; read-out: Percent inhibition BROTE

Question: `CCSC(F)(F)S(=O)(=O)c1ncn(C(=O)N(CC)CC)n1` [Example 8, 1-(N,N-diethylcarbamoyl)-3-[difluoro(ethylthio)methylsulfonyl]-1,2,4-triazole] was tested. Which inhibition at 900 g/ha did it give?
Answer: 99%

Same assay, conditions: pre-plant incorporated; lowest tested rate with 80% or greater inhibition; about 14 days

Question: Which “PPI activity GR80, BROTE” value does the source give for `CCSC(F)(F)S(=O)(=O)c1ncn(C(=O)N(CC)CC)n1` [Example 8, 1-(N,N-diethylcarbamoyl)-3-[difluoro(ethylthio)methylsulfonyl]-1,2,4-triazole] here?
Answer: 300 g/ha

What follows are molecules tested on STEME (common chickweed) in the same assay as above. Details: Stellaria media; weed, PPI application, 30 g/ha; read-out: Percent inhibition STEME.
Assay type: in vivo, Stellaria media
Protocol: as §2, §3, §4

Question: How did the inhibition at 30 g/ha turn out when `CCSC(F)(F)S(=O)(=O)c1ncn(C(=O)N(CC)CC)n1` [Example 8, 1-(N,N-diethylcarbamoyl)-3-[difluoro(ethylthio)methylsulfonyl]-1,2,4-triazole] was run?
Answer: 80%

Same assay, conditions: Stellaria media; weed, PPI application, 100 g/ha; read-out: Percent inhibition STEME

Question: Which inhibition at 100 g/ha does the source give for `CCSC(F)(F)S(=O)(=O)c1ncn(C(=O)N(CC)CC)n1` [Example 8, 1-(N,N-diethylcarbamoyl)-3-[difluoro(ethylthio)methylsulfonyl]-1,2,4-triazole] here?
Answer: 80%

Same assay, conditions: Stellaria media; weed, PPI application, 300 g/ha; read-out: Percent inhibition STEME

Question: `CCSC(F)(F)S(=O)(=O)c1ncn(C(=O)N(CC)CC)n1` [Example 8, 1-(N,N-diethylcarbamoyl)-3-[difluoro(ethylthio)methylsulfonyl]-1,2,4-triazole] was tested. Which inhibition at 300 g/ha did it give?
Answer: 95%

Same assay, conditions: Stellaria media; weed, PPI application, 900 g/ha; read-out: Percent inhibition STEME

Question: With `CCSC(F)(F)S(=O)(=O)c1ncn(C(=O)N(CC)CC)n1` [Example 8, 1-(N,N-diethylcarbamoyl)-3-[difluoro(ethylthio)methylsulfonyl]-1,2,4-triazole] as the molecule, how does the inhibition at 900 g/ha read?
Answer: 99%

Same assay, conditions: pre-plant incorporated; lowest tested rate with 80% or greater inhibition; about 14 days

Question: Which “PPI activity GR80, STEME” value does the source give for `CCSC(F)(F)S(=O)(=O)c1ncn(C(=O)N(CC)CC)n1` [Example 8, 1-(N,N-diethylcarbamoyl)-3-[difluoro(ethylthio)methylsulfonyl]-1,2,4-triazole] here?
Answer: 30 g/ha

Each molecule was assayed on ALOMY (blackgrass) (assay: Post-emergence herbicidal activity, cool season). Details: abraded plants sprayed at 300, 100, 30 and 10 g/ha; about 14 days after treatment.
Assay type: in vivo, Alopecurus myosuroides
Procedure, shortened: as §1

Question: With `CCSC(F)(F)S(=O)(=O)c1ncn(C(=O)N(CC)CC)n1` [Example 8, 1-(N,N-diethylcarbamoyl)-3-[difluoro(ethylthio)methylsulfonyl]-1,2,4-triazole] as the molecule, how does the “Post-emergence activity GR80, ALOMY” value read?
Answer: [empty]

Question: For `CCN(CC)C(=O)n1cnc(S(=O)(=O)C(F)(F)C(F)(F)SC)n1` [Example 14], which “Post-emergence activity GR80, ALOMY” value is on record?
Answer: [empty]

The molecules below were run on SETFA (giant foxtail) (assay: Pre-plant incorporated (PPI) herbicidal activity, warm season). Details: Setaria faberi; PPI application, 30 g/ha; read-out: Percent inhibition SETFA.
Assay type: in vivo, Setaria faberi
Protocol: as §2, §3, §4

Question: With `CCSC(F)(F)S(=O)(=O)c1ncn(C(=O)N(CC)CC)n1` [Example 8, 1-(N,N-diethylcarbamoyl)-3-[difluoro(ethylthio)methylsulfonyl]-1,2,4-triazole] as the molecule, how does the inhibition at 30 g/ha read?
Answer: 90%

Same assay, conditions: Setaria faberi; PPI application, 100 g/ha; read-out: Percent inhibition SETFA

Question: How did the inhibition at 100 g/ha turn out when `CCSC(F)(F)S(=O)(=O)c1ncn(C(=O)N(CC)CC)n1` [Example 8, 1-(N,N-diethylcarbamoyl)-3-[difluoro(ethylthio)methylsulfonyl]-1,2,4-triazole] was run?
Answer: 100%

Same assay, conditions: Setaria faberi; PPI application, 300 g/ha; read-out: Percent inhibition SETFA

Question: For `CCSC(F)(F)S(=O)(=O)c1ncn(C(=O)N(CC)CC)n1` [Example 8, 1-(N,N-diethylcarbamoyl)-3-[difluoro(ethylthio)methylsulfonyl]-1,2,4-triazole], which inhibition at 300 g/ha is on record?
Answer: 100%

Same assay, conditions: Setaria faberi; PPI application, 900 g/ha; read-out: Percent inhibition SETFA

Question: For `CCSC(F)(F)S(=O)(=O)c1ncn(C(=O)N(CC)CC)n1` [Example 8, 1-(N,N-diethylcarbamoyl)-3-[difluoro(ethylthio)methylsulfonyl]-1,2,4-triazole], which inhibition at 900 g/ha is on record?
Answer: 100%

Same assay, conditions: pre-plant incorporated; lowest tested rate with 80% or greater inhibition; about 14 days

Question: How did the “PPI activity GR80, SETFA” value turn out when `CCSC(F)(F)S(=O)(=O)c1ncn(C(=O)N(CC)CC)n1` [Example 8, 1-(N,N-diethylcarbamoyl)-3-[difluoro(ethylthio)methylsulfonyl]-1,2,4-triazole] was run?
Answer: 30 g/ha

Each molecule was assayed on SETVI (green foxtail) (assay: Pre-plant incorporated (PPI) herbicidal activity, cool season). Details: Setaria viridis; weed, PPI application, 30 g/ha; read-out: Percent inhibition SETVI.
Assay type: in vivo, Setaria viridis
Protocol: as §2, §3, §4

Question: How did the inhibition at 30 g/ha turn out when `CCSC(F)(F)S(=O)(=O)c1ncn(C(=O)N(CC)CC)n1` [Example 8, 1-(N,N-diethylcarbamoyl)-3-[difluoro(ethylthio)methylsulfonyl]-1,2,4-triazole] was run?
Answer: 100%

Same assay, conditions: Setaria viridis; weed, PPI application, 100 g/ha; read-out: Percent inhibition SETVI

Question: `CCSC(F)(F)S(=O)(=O)c1ncn(C(=O)N(CC)CC)n1` [Example 8, 1-(N,N-diethylcarbamoyl)-3-[difluoro(ethylthio)methylsulfonyl]-1,2,4-triazole] was tested. Which inhibition at 100 g/ha did it give?
Answer: 100%

Same assay, conditions: Setaria viridis; weed, PPI application, 300 g/ha; read-out: Percent inhibition SETVI

Question: How did the inhibition at 300 g/ha turn out when `CCSC(F)(F)S(=O)(=O)c1ncn(C(=O)N(CC)CC)n1` [Example 8, 1-(N,N-diethylcarbamoyl)-3-[difluoro(ethylthio)methylsulfonyl]-1,2,4-triazole] was run?
Answer: 100%

Same assay, conditions: Setaria viridis; weed, PPI application, 900 g/ha; read-out: Percent inhibition SETVI

Question: Which inhibition at 900 g/ha does the source give for `CCSC(F)(F)S(=O)(=O)c1ncn(C(=O)N(CC)CC)n1` [Example 8, 1-(N,N-diethylcarbamoyl)-3-[difluoro(ethylthio)methylsulfonyl]-1,2,4-triazole] here?
Answer: 100%

Same assay, conditions: pre-plant incorporated; lowest tested rate with 80% or greater inhibition; about 14 days

Question: Which “PPI activity GR80, SETVI” value does the source give for `CCSC(F)(F)S(=O)(=O)c1ncn(C(=O)N(CC)CC)n1` [Example 8, 1-(N,N-diethylcarbamoyl)-3-[difluoro(ethylthio)methylsulfonyl]-1,2,4-triazole] here?
Answer: 30 g/ha
